Data on seven molecules can be found in patent publication US6420129B1, “Reagent composition for determination of electrolytes” (Toyo Boseki Kabushiki Kaisha, priority 1998, dated 2002).

The nature of series [1]: Visual observation of test solutions for deposition of crystals or white turbidity. The series is classed as physicochemical. Also noted: key to turbidity (visual observation): +: turbidity found; −: no turbidity. Here is the method: Among the reagents for the determination of calcium with the reagent formulations as described below, test enzyme solutions were prepared by the addition of glucosyl-α-cyclodextrin (G1αCD), maltosyl-α-cyclodextrin (G2αCD), glucosyl-p-cyclodextrin (G1βCD), or maltosyl-β-cyclodextrin(G2βCD) as a cyclodextrin derivative to have a concentration of 0, 1.5, 3, 6, or 12 mM. To the test enzyme solutions containing 3 mM glucosyl-β-cyclodextrin was further added independently N-acetylcysteine or reduced glutathione to have a concentration of 2.5, 5, 10, or 20 mM.
Both kinds of test solutions prepared by the above procedures were stored at 4° C. for 3 months. Visual observation of the test solutions was carried out just after the preparation and after the storage to examine whether there was found the deposition of crystals or the presence of white turbidity. The results are shown in table 1 for the visual observation just after the preparation and in Table 2 for the visual observation after the storage.
The test solutions were prepared in the same manner as described in Example 1, except that α-cyclodextrin (αCD) (1.5, 3, 6, or 12 mM), β-cyclodextrin (βCD) (1.5, 3, 6, or 12 mM), or γ-cyclodextrin (γCD) (1.5, 3, 6, or 12 mM) was independently added instead of the cyclodextrin derivatives and the SH group containing compounds in the above reagent formulations to have the respective concentrations as shown in Table 1. Both kinds of test solutions were stored at 4° C. for 3 months. Visual observation of the test solutions was carried out just after the preparation and after the storage to examine whether there was found the deposition of crystals or the presence of white turbidity. The results are shown in Table 1 for the visual observation just after the preparation and in Table 2 for the visual observation after the storage.

Series [2] addresses T1, Inactive α-amylase (from swine pancreas) (Sus scrofa, UniProt P00690).
T1 construct: α-amylase derived from the swine pancreas; from tissue; host or cells: swine pancreas
T1 sequence (P00690 16-511): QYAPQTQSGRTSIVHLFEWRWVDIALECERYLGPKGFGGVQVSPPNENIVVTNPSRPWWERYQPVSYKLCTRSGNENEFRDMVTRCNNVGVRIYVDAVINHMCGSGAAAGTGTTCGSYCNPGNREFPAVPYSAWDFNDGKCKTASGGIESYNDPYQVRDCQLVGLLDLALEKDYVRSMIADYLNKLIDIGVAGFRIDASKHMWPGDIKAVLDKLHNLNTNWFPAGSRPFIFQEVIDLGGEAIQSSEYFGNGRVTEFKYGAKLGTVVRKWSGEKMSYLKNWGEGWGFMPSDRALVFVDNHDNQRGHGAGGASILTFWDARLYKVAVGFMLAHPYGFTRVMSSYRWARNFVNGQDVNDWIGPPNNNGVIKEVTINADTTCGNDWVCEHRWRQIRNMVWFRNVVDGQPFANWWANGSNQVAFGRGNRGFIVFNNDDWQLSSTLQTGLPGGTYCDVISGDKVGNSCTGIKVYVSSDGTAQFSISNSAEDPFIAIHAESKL
The series is described as follows: Residual activity of α-amylase in test enzyme solutions after storage. As to conditions: after storage at 35° C. for 7 days. Format: biochemical. How it is done:
[table] In the test enzyme solutions of the reagents for the determination of calcium with the reagent formulations as described above in Example 1, glucosyl-α-cyclodextrin, maltosyl-α-cyclodextrin, glucosyl-β-cyclodextrin, or maltosyl-β-cyclodextrin was independently added as a cyclodextrin derivative at 12 mM. […] Instead of the cyclodextrin derivatives and the SH group containing compounds in the reagent formulations as described above in Example 1, glucose (100 mM), maltose (50 mM), maltotriose (30 mM), α-cyclodextrin (1.5 mM), β-cyclodextrin (1.5 mM), γ-cyclodextrin (1.5 mM), N-acetylcysteine (20 mM), or reduced glutathione (20 mM) was independently added to have the respective concentrations as shown in Table 3.

In series [3] the target is T1, Inactive α-amylase (from swine pancreas). The series is described as follows: Relative sensitivity in determination of calcium with 10 mg/dl calcium standard solution. The series is classed as biochemical. As to conditions: just after the preparation, 10 mg/dl calcium standard. How it is done: [table] In the test enzyme solutions of the reagents for the determination of calcium with the reagent formulations as described above in Example 1, glucosyl-α-cyclodextrin, maltosyl-α-cyclodextrin, glucosyl-β-cyclodextrin, or maltosyl-β-cyclodextrin was independently added as a cyclodextrin derivative at 0, 1.5, 3, 6, or 12 mM. To the test enzyme solutions containing 3 mM glucosyl-β-cyclodextrin was further added independently N-acetylcysteine or reduced glutathione at 2.5, 5, 10, or 20 mM, and the determination of calcium ions with a calcium standard solution was carried out as described below. According to the method as described below, the determination of the amount of calcium was carried out for test solutions just after the preparation with 10 mg/dl calcium standard solution as a sample, and the relative sensitivity (%) was determined under the respective reagent conditions when the sensitivity in the case of no addition of cyclodextrin derivatives was taken as 100%. B. Method for the Determination of the Amount of Calcium To 5.8 μl of a sample was added 180 μl of a test enzyme solution, and the mixture was pre-warmed for 5 minutes, to which 90 μl of a test substrate solution was further added to make the reaction start. […] The measuring apparatus used was HITACHI Automatic Analyzer model 7170. The measurement wavelength was 405 nm for the principal wavelength and 546 nm for the second wavelength. The measurement was carried out at 37° C. […] The test solutions thus prepared were used for the determination of the calcium standard solution in the same manner as described in Example 3.

The mark [4] stands for this setting: after storage at 4° C. for 3 months, agent added 1.5 mM.
Setting [5] is: after storage at 4° C. for 3 months, agent added 3 mM.
The mark [6] stands for this setting: after storage at 4° C. for 3 months, agent added 6 mM.
[7] abbreviates: after storage at 4° C. for 3 months, agent added 12 mM.
Setting [8] is: just after the preparation, agent added 1.5 mM.
Setting [9] is: just after the preparation, agent added 3 mM.
Setting [10] is: just after the preparation, agent added 6 mM.
The mark [11] stands for this setting: just after the preparation, agent added 12 mM.
The mark [12] stands for this setting: after the storage at 4° C. for 3 months, at 3 mM.
Setting [13] is: just after the preparation, at 6 mM.

For `OCC1OC(OCC2OC3OC4C(CO)OC(OC5C(CO)OC(OC6C(CO)OC(OC7C(CO)OC(OC8C(CO)OC(OC2C(O)C3O)C(O)C8O)C(O)C7O)C(O)C6O)C(O)C5O)C(O)C4O)C(O)C(O)C1O` (stereo not drawn) [G1αCD, glucosyl-α-cyclodextrin], the “turbidity (visual observation)” value in series [1] (setting [4]), in series [1] (setting [5]), in series [1] (setting [6]), in series [1] (setting [7]), in series [1] (setting [8]) and in series [1] (setting [9]) was “−” in each case. In addition, the “turbidity (visual observation)” value in series [1] (setting [10]) and in series [1] (setting [11]) was “−” each time. Also, in series [2] (agent 12 mM), the “Residual activity (%)” value is 80.4%. The “Relative sensitivity (%) when sensitivity in case of no addition is taken as 100%” value in series [3] (agent 1.5 mM) is on record as 112.8%; in series [3] (agent 3 mM) it was 120.2%; in series [3] (agent 6 mM), 122.3%; in series [3] (agent 12 mM), 118.9%.
Regarding `OC[C@H]1O[C@@H]2O[C@H]3[C@H](O)[C@@H](O)[C@@H](O[C@H]4[C@H](O)[C@@H](O)[C@@H](O[C@H]5[C@H](O)[C@@H](O)[C@@H](O[C@H]6[C@H](O)[C@@H](O)[C@@H](O[C@H]7[C@H](O)[C@@H](O)[C@@H](O[C@H]8[C@H](O)[C@@H](O)[C@@H](O[C@H]9[C@H](O)[C@@H](O)[C@@H](O[C@H]1[C@H](O)[C@H]2O)O[C@@H]9CO)O[C@@H]8CO)O[C@@H]7CO)O[C@@H]6CO)O[C@@H]5CO)O[C@@H]4CO)O[C@@H]3CO` [γCD, γ-cyclodextrin, reference compound], the “turbidity (visual observation)” value in series [1] (setting [4]) is given as “−”; in series [1] (setting [5]), “−”; in series [1] (setting [6]), “+”; in series [1] (setting [7]), “+”; in series [1] (setting [8]), “−”; in series [1] (setting [9]) it was “−”. Besides, the “turbidity (visual observation)” value in series [1] (setting [10]) and in series [1] (setting [11]) was “+” each time. Besides, the “turbidity of test enzyme solution (in words)” value in series [1] (setting [12]) is recorded as “became turbid”; in series [1] (setting [13]), “had already become turbid”. Besides, the “Residual activity (%)” value in series [2] (agent 1.5 mM) is given as 74.6%.
`CC(=O)N[C@@H](CS)C(=O)O` [NAC, N-acetylcysteine] yielded a remaining activity at 20000 µM in series [2] (agent 20 mM) of 71.2%.
On to `N[C@@H](CCC(=O)N[C@@H](CS)C(=O)NCC(=O)O)C(=O)O` [GSH, reduced glutathione], for which, in series [2] (agent 20 mM), the “Residual activity (%)” value is 75.4%.
For `OC[C@H]1O[C@@H]2O[C@H]3[C@H](O)[C@@H](O)[C@@H](O[C@H]4[C@H](O)[C@@H](O)[C@@H](O[C@H]5[C@H](O)[C@@H](O)[C@@H](O[C@H]6[C@H](O)[C@@H](O)[C@@H](O[C@H]7[C@H](O)[C@@H](O)[C@@H](O[C@H]1[C@H](O)[C@H]2O)O[C@@H]7CO)O[C@@H]6CO)O[C@@H]5CO)O[C@@H]4CO)O[C@@H]3CO` [αCD, α-cyclodextrin, reference compound], the “turbidity (visual observation)” value is “−” in series [1] (setting [4]); “−” in series [1] (setting [5]); “+” in series [1] (setting [6]); “+” in series [1] (setting [7]); “−” in series [1] (setting [8]); “−” in series [1] (setting [9]). Moreover, the “turbidity (visual observation)” value in series [1] (setting [10]) and in series [1] (setting [11]) was “+” in each case. The “turbidity of test enzyme solution (in words)” value is reported as “became turbid” in series [1] (setting [12]) and “had already become turbid” in series [1] (setting [13]). The “Residual activity (%)” value in series [2] (agent 1.5 mM) was determined as 70.5%.
For the molecule `OCC1OC(OC2C(CO)OC(OCC3OC4OC5C(CO)OC(OC6C(CO)OC(OC7C(CO)OC(OC8C(CO)OC(OC9C(CO)OC(OC%10C(CO)OC(OC3C(O)C4O)C(O)C%10O)C(O)C9O)C(O)C8O)C(O)C7O)C(O)C6O)C(O)C5O)C(O)C2O)C(O)C(O)C1O` (stereo not drawn) [G2βCD, maltosyl-β-cyclodextrin], the “turbidity (visual observation)” value in series [1] (setting [4]), in series [1] (setting [5]), in series [1] (setting [6]), in series [1] (setting [7]), in series [1] (setting [8]) and in series [1] (setting [9]) was “−” throughout. Moreover, the “turbidity (visual observation)” value in series [1] (setting [10]) and in series [1] (setting [11]) was “−” each time. The “Residual activity (%)” value in series [2] (agent 12 mM) is reported as 93.0%. Besides, the “Relative sensitivity (%) when sensitivity in case of no addition is taken as 100%” value in series [3] (agent 1.5 mM) amounted to 122.8%; in series [3] (agent 3 mM) it was 120.7%; in series [3] (agent 6 mM), 120.2%; in series [3] (agent 12 mM), 123.0%.
Regarding `OCC1OC(OC2C(CO)OC(OCC3OC4OC5C(CO)OC(OC6C(CO)OC(OC7C(CO)OC(OC8C(CO)OC(OC9C(CO)OC(OC3C(O)C4O)C(O)C9O)C(O)C8O)C(O)C7O)C(O)C6O)C(O)C5O)C(O)C2O)C(O)C(O)C1O` (stereo not drawn) [G2αCD, maltosyl-α-cyclodextrin], the “turbidity (visual observation)” value in series [1] (setting [4]), in series [1] (setting [5]), in series [1] (setting [6]), in series [1] (setting [7]), in series [1] (setting [8]) and in series [1] (setting [9]) was “−” each time. Further, the “turbidity (visual observation)” value in series [1] (setting [10]) and in series [1] (setting [11]) was “−” each time. The “Residual activity (%)” value in series [2] (agent 12 mM) is on record as 82.3%. For the same molecule, the “Relative sensitivity (%) when sensitivity in case of no addition is taken as 100%” value in series [3] (agent 1.5 mM) was 112.5%; in series [3] (agent 3 mM), 123.0%; in series [3] (agent 6 mM), 119.4%; in series [3] (agent 12 mM) it was 122.8%.
